Test results reported in PubChem BioAssay AID328 (DTP/NCI, 2004).
Values joined by “and” are separate entries in the source; they are usually repeats but may differ in a detail not shown here. Identical values can stand only once. Toxic doses and inconclusive results are not listed. How the source made its calls: active means survival T/C of 150% or more; inactive means T/C below 125% in these data.

System: BDF1 mice, P388 leukemia ip, median survival T/C
Experiment: NCI In Vivo Anticancer Drug Screen. Data for tumor model P388 Leukemia (intraperitoneal) in B6D2F1 (BDF1) mice
Details: endpoint: median survival time, higher = longer survival
Procedure, shortened: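 Steps: implant the tumour, treat one group with compound and another with vehicle, record survival, then divide treated by control.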

[1] = dose: 12.5 mg/kg/injection, schedule: Q01DX009 (ip), vehicle: saline with Tween-80
[2] = dose: 25.0 mg/kg/injection, schedule: Q01DX009 (ip), vehicle: saline with Tween-80
[3] = dose: 25.0 mg/kg/injection, schedule: Q01DX009 (ip), vehicle: Klucel (hydroxypropylcellulose) (HPC)
[4] = dose: 50.0 mg/kg/injection, schedule: Q01DX009 (ip), vehicle: Klucel (hydroxypropylcellulose) (HPC)
[5] = dose: 100.0 mg/kg/injection, schedule: Q01DX009 (ip), vehicle: Klucel (hydroxypropylcellulose) (HPC)
[6] = dose: 100.0 mg/kg/injection, schedule: Q04DX003 (ip), vehicle: Klucel (hydroxypropylcellulose) (HPC)
[7] = dose: 200.0 mg/kg/injection, schedule: Q04DX003 (ip), vehicle: Klucel (hydroxypropylcellulose) (HPC)
[8] = dose: 400.0 mg/kg/injection, schedule: Q04DX003 (ip), vehicle: Klucel (hydroxypropylcellulose) (HPC)
[9] = dose: 100.0 mg/kg/injection, schedule: Q01DX001 (ip), vehicle: saline with Tween-80
[10] = dose: 6.25 mg/kg/injection, schedule: Q01DX009 (ip), vehicle: saline
[11] = dose: 50.0 mg/kg/injection, schedule: Q04DX003 (ip), vehicle: saline
[12] = dose: 12.5 mg/kg/injection, schedule: Q01DX009 (ip), vehicle: saline
[13] = dose: 25.0 mg/kg/injection, schedule: Q01DX009 (ip), vehicle: saline
[14] = dose: 100.0 mg/kg/injection, schedule: Q04DX003 (ip), vehicle: saline with Tween-80
[15] = dose: 200.0 mg/kg/injection, schedule: Q04DX003 (ip), vehicle: saline with Tween-80
[16] = dose: 400.0 mg/kg/injection, schedule: Q04DX003 (ip), vehicle: saline with Tween-80
[17] = dose: 100.0 mg/kg/injection, schedule: Q01DX009 (ip), vehicle: saline with Tween-80
[18] = dose: 200.0 mg/kg/injection, schedule: Q01DX009 (ip), vehicle: saline with Tween-80
[19] = dose: 400.0 mg/kg/injection, schedule: Q01DX009 (ip), vehicle: saline with Tween-80
[20] = dose: 200.0 mg/kg/injection, schedule: Q01DX001 (ip), vehicle: saline with Tween-80
[21] = dose: 400.0 mg/kg/injection, schedule: Q01DX001 (ip), vehicle: saline with Tween-80

Measured: T/C

CC(C(=O)O)c1ccccc1 (stereo unspecified)
inactive: dose: 50.0 mg/kg/injection, schedule: Q01DX009 (ip), vehicle: other 101 % of control | dose: 100.0 mg/kg/injection, schedule: Q01DX009 (ip), vehicle: other 106 % of control | dose: 200.0 mg/kg/injection, schedule: Q01DX009 (ip), vehicle: other 110 % of control

CC(C)COC(=O)NCCF
inactive: dose: 6.25 mg/kg/injection, schedule: Q01DX009 (ip), vehicle: saline with Tween-80 107 % of control | [1] 112 % of control | [2] 120 % of control

CCn1nnc2c(N(C)C)nc(N)nc21
inactive: [3] 92 % of control | [4] 92 % of control | dose: 50.0 mg/kg/injection, schedule: Q04DX003 (ip), vehicle: Klucel (hydroxypropylcellulose) (HPC) 100 % of control | [5] 92 % of control | [6] 104 % of control

Cc1ccc(NC(=O)c2ccc(Cl)cc2)cc1
inactive: [5] 100 % of control | [6] 108 % of control | dose: 200.0 mg/kg/injection, schedule: Q01DX009 (ip), vehicle: Klucel (hydroxypropylcellulose) (HPC) 109 % of control | [7] 104 % of control | dose: 400.0 mg/kg/injection, schedule: Q01DX009 (ip), vehicle: Klucel (hydroxypropylcellulose) (HPC) 90 % of control | [8] 104 % of control

COC1CCC(C=O)C(C#N)(C#N)C1(C#N)C#N (stereo unspecified)
inactive: dose: 50.0 mg/kg/injection, schedule: Q01DX001 (ip), vehicle: saline with Tween-80 112 % of control | [9] 100 % of control

Cc1c(Br)c(=O)n(-c2ccccc2)n1C
inactive: dose: 12.5 mg/kg/injection, schedule: Q01DX009 (ip), vehicle: Klucel (hydroxypropylcellulose) (HPC) 106 % of control | [3] 98 % of control | [4] 100 % of control and 106 % of control | [5] 106 % of control

CCCCCCCCCCCCCC[N+](C)(C)CCCCCCCCCCCCCC
inactive: [10] 120 % of control | dose: 16.5 mg/kg/injection, schedule: Q01DX009 (ip), vehicle: saline 87 % of control | dose: 17.0 mg/kg/injection, schedule: Q01DX009 (ip), vehicle: saline 119 % of control | dose: 25.0 mg/kg/injection, schedule: Q04DX003 (ip), vehicle: saline 118 % of control | dose: 37.0 mg/kg/injection, schedule: Q01DX009 (ip), vehicle: saline 119 % of control | [11] 104 % of control

COc1cc2c(cc1OC)C1=C(CC2)C2CCCN2CC1 (stereo unspecified)
inactive: [10] 95 % of control | [12] 105 % of control | [13] 95 % of control

COc1cc(OC)cc(C2=NNc3n[nH]c(=S)n3N2)c1
inactive: [14] 100 % of control | [15] 95 % of control | [16] 100 % of control

CCCCCCCCCCCCCC[N+](C)(C)CC(=O)O
inactive: [1] 103 % of control | [2] 106 % of control | dose: 50.0 mg/kg/injection, schedule: Q01DX009 (ip), vehicle: saline with Tween-80 113 % of control

CN1c2ccc3ccccc3c2Sc2ccc3ccccc3c21
inactive: [17] 113 % of control | [14] 100 % of control | [18] 104 % of control | [15] 95 % of control | [19] 104 % of control | [16] 90 % of control

CC(C)(C)OC(=O)c1cccc(C(=O)OC(C)(C)C)c1
inactive: dose: 100.0 mg/kg/injection, schedule: Q04DX002 (ip), vehicle: saline with Tween-80 103 % of control | dose: 200.0 mg/kg/injection, schedule: Q04DX002 (ip), vehicle: saline with Tween-80 95 % of control | dose: 400.0 mg/kg/injection, schedule: Q04DX002 (ip), vehicle: saline with Tween-80 94 % of control

COc1ccc(NC(=O)Oc2ccccc2Cc2ccccc2)cc1
inactive: [6] 100 % of control | [7] 95 % of control

Cc1ccc(C2(C#N)CCCCC2)cc1
inactive: dose: 66.0 mg/kg/injection, schedule: Q01DX009 (ip), vehicle: saline with Tween-80 116 % of control | [17] 120 % of control | [14] 100 % of control | dose: 150.0 mg/kg/injection, schedule: Q01DX009 (ip), vehicle: saline with Tween-80 112 % of control | [18] 108 % of control | [15] 108 % of control | [19] 116 % of control | [16] 112 % of control

CCc1noc(CC)c1CC1=C2CCC3(C)CCC(C)(C)CC3C2(C)CCC1=O (stereo unspecified)
inactive: [9] 95 % of control | [20] 90 % of control | [21] 90 % of control

CC(C)=CCOc1ccc(C(=O)/C=C/c2ccc(O)cc2)c(O)c1
inactive: dose: 1.25 mg/kg/injection, schedule: Q01DX009 (ip), vehicle: Klucel (hydroxypropylcellulose) (HPC) 93 % of control | dose: 2.5 mg/kg/injection, schedule: Q01DX009 (ip), vehicle: Klucel (hydroxypropylcellulose) (HPC) 115 % of control | dose: 5.0 mg/kg/injection, schedule: Q01DX009 (ip), vehicle: Klucel (hydroxypropylcellulose) (HPC) 109 % of control | dose: 10.0 mg/kg/injection, schedule: Q01DX009 (ip), vehicle: Klucel (hydroxypropylcellulose) (HPC) 107 % of control | dose: 20.0 mg/kg/injection, schedule: Q01DX009 (ip), vehicle: Klucel (hydroxypropylcellulose) (HPC) 97 % of control | dose: 40.0 mg/kg/injection, schedule: Q01DX009 (ip), vehicle: Klucel (hydroxypropylcellulose) (HPC) 98 % of control

O=C(N/N=C/c1cccc(Cl)c1)c1ccccc1
inactive: dose: 100.0 mg/kg/injection, schedule: Q04DX003 (ip), vehicle: other 95 % of control | dose: 200.0 mg/kg/injection, schedule: Q04DX003 (ip), vehicle: other 95 % of control | dose: 400.0 mg/kg/injection, schedule: Q04DX003 (ip), vehicle: other 113 % of control

CC(C)(C)OC(=O)C(C=O)N1C(=O)c2ccccc2C1=O (stereo unspecified)
inactive: [9] 95 % of control | [20] 95 % of control | [21] 100 % of control

O=C(c1ccccc1)c1ccccc1C(=O)c1ccccc1
inactive: [3] 95 % of control | [4] 100 % of control | [5] 89 % of control and 91 % of control | [6] 109 % of control | [7] 104 % of control | [8] 118 % of control

CCOc1ccc(OCC)c2c1C(=O)c1ccccc1C2=O
inactive: [6] 100 % of control | [7] 105 % of control | [8] 111 % of control

CC(C)c1ncc(CCCN=C(N)N)[nH]c1=O
inactive: dose: 37.5 mg/kg/injection, schedule: Q01DX009 (ip), vehicle: saline 98 % of control | dose: 75.0 mg/kg/injection, schedule: Q01DX009 (ip), vehicle: saline 94 % of control | dose: 150.0 mg/kg/injection, schedule: Q01DX009 (ip), vehicle: saline 90 % of control

CS(C)=O.CS(C)=O.CS(C)=O.[Cl][Rh]([Cl])[Cl]
inactive: dose: 3.12 mg/kg/injection, schedule: Q01DX009 (ip), vehicle: saline 114 % of control | [10] 114 % of control | [12] 116 % of control | [13] 104 % of control and 116 % of control | dose: 50.0 mg/kg/injection, schedule: Q01DX009 (ip), vehicle: saline 116 % of control | [11] 100 % of control | dose: 100.0 mg/kg/injection, schedule: Q04DX003 (ip), vehicle: saline 109 % of control
